Reference: US12371454B2, “Cyclic peptide compound having Kras inhibitory action” (priority 2019, dated 2025)
pIC50: −log10 of the molar value. Starred links: 1 amine or outer side, 2 acyl side, 3 side chain; linkers in the order of their positions; H or OH if unused. Positions of bridges follow the written chain, without caps; N, C: chain ends. Non-standard residues stand in square brackets, D forms with d. Residues, ends and D or L forms follow the SMILES beside them. *: point of attachment. hPhe(3,5-F2-4-CF3) = N[C@@H](CCc1cc(F)c(C(F)(F)F)c(F)c1)C(=O)O; hPhe(3-Cl-4-CF3) = N[C@@H](CCc1ccc(C(F)(F)F)c(Cl)c1)C(=O)O; X38 = CN([C@@H](Cc1cccc(OC(F)(F)F)c1)C(=O)[*:2])[*:1]; hPhe(4-CF3) = N[C@@H](CCc1ccc(C(F)(F)F)cc1)C(=O)O; 3Oxa8azabicyclo(3.2.1)octane = C1CC2COCC1N2*; NEtPhe(4-Me) = CCN[C@@H](Cc1ccc(C)cc1)C(=O)O; NMePhe(4-Cl) = CN[C@@H](Cc1ccc(Cl)cc1)C(=O)O; NMePhe(3-Me) = CN[C@@H](Cc1cccc(C)c1)C(=O)O; NMePhe(4-Me) = CN[C@@H](Cc1ccc(C)cc1)C(=O)O; NMePhe(4-F) = CN[C@@H](Cc1ccc(F)cc1)C(=O)O; Phe(3-Br) = N[C@@H](Cc1cccc(Br)c1)C(=O)O; NMeGly(cPent) = CN[C@H](C(=O)O)C1CCCC1; Pro(4,4-F2) = O=C(O)[C@@H]1CC(F)(F)CN1; NMeCha = CN[C@@H](CC1CCCCC1)C(=O)O; NMeChg = CN[C@H](C(=O)O)C1CCCCC1; NMeF = CN[C@@H](Cc1ccccc1)C(=O)O; NMeI = CC[C@H](C)[C@H](NC)C(=O)O; NMeD = CN[C@@H](CC(=O)O)C(=O)O; NMeL = CN[C@@H](CC(C)C)C(=O)O; NMeNva = CCC[C@H](NC)C(=O)O; NMeV = CN[C@H](C(=O)O)C(C)C; d(β3hA) = C[C@@H](N)CC(=O)O; NMeS = CN[C@@H](CO)C(=O)O; Morpholide = C1CN(*)CCO1; NMeA = CN[C@@H](C)C(=O)O; NMeAib = CNC(C)(C)C(=O)O; Nle = CCCC[C@H](N)C(=O)O; Piperidide = C1CCN(*)CC1; Pyrrolidide = C1CCN(*)C1; dNMeA = CN[C@H](C)C(=O)O; Ac5c = NC1(C(=O)O)CCCC1; Aze = O=C(O)[C@@H]1CCN1; CH2CMe2OH = CC(C)(O)C*; Sar = CNCC(=O)O

Biological target: T1, Kras and SOS1 (biotin-tagged human Kras loaded with GDP, His-tagged human SOS1) (Homo sapiens, UniProt P01116, G12D)
T1 construct: made in house; host or cells: E. coli (stated for Kras only)
T1 sequence (P01116 1-188 isoform P01116-2 G12D): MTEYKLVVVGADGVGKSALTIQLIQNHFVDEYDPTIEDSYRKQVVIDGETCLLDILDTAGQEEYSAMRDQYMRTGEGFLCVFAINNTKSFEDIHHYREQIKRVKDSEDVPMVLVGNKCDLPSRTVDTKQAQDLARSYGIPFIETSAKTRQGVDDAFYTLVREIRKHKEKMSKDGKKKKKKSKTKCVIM
Assay: Protein-protein interaction inhibition between Kras and SOS1 (KrasGl2D-SOS PPI) using AlphaScreen
Assay type: binding
Details: AlphaScreen; biotin-tagged human Kras loaded with GDP, His-tagged human SOS1; read-out: KRAS G12D-SOS PPI IC50
Procedure, shortened: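 Energy transfer from nickel-chelate donor beads bound to His-SOS1 to streptavidin acceptor beads bound to biotin-Kras, expressed in E. coli and loaded with GDP after purification, was monitored. Donors were excited at 680 nm; singlet oxygen reaching acceptors gave emission read at 520-620 nm.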

Structure (SMILES)	pIC50
CC[C@H](C)[C@@H]1NC(=O)[C@H](C)N(C)C(=O)C[C@@H](C)NC(=O)[C@H](C(C)C)N(C)C(=O)C2(CCCC2)NC(=O)[C@@H]2CCCN2C(=O)[C@H](CCc2ccc(C(F)(F)F)c(Cl)c2)NC(=O)[C@@H](C)N(C)C(=O)[C@H](CC2CCCCC2)N(C)C(=O)[C@@H]2CCN2C(=O)[C@H](C)N(C)C1=O [Compound 831] (cyclo([Ac5c][NMeV][d(β3hA)][NMeA]I[NMeA][Aze][NMeCha][dNMeA][hPhe(3-Cl-4-CF3)]P))	6.74
CC[C@H](C)[C@@H]1NC(=O)[C@H](CC(C)C)N(C)C(=O)C[C@@H](C(=O)N2CCOCC2)N(C)C(=O)[C@H](C2CCCCC2)N(C)C(=O)C2(CCCC2)NC(=O)[C@@H]2CC(F)(F)CN2C(=O)[C@H](CCc2cc(F)c(C(F)(F)F)c(F)c2)NC(=O)CN(C)C(=O)[C@H](CC2CCCCC2)N(C)C(=O)CN(C)C(=O)CN(C)C1=O [Compound 1337] ([NMeL]I[Sar][Sar][NMeCha][Sar][hPhe(3,5-F2-4-CF3)][Pro(4,4-F2)][Ac5c][NMeChg][NMeD]-Morpholide; lactam N-11)	9.26
CC[C@H](C)[C@@H]1NC(=O)[C@H](CC(C)C)N(C)C(=O)C[C@@H](C)NC(=O)[C@H](C(C)C)N(C)C(=O)C2(CCCC2)NC(=O)[C@@H]2CCCN2C(=O)[C@H](CCc2ccc(C(F)(F)F)c(Cl)c2)NC(=O)CN(C)C(=O)[C@H](Cc2cccc(C)c2)N(C)C(=O)CN(C)C(=O)CN(C)C1=O [Compound 1547] (cyclo([Ac5c][NMeV][d(β3hA)][NMeL]I[Sar][Sar][NMePhe(3-Me)][Sar][hPhe(3-Cl-4-CF3)]P))	7.66
CC[C@H](C)[C@@H]1NC(=O)[C@H](C)N(C)C(=O)C[C@@H](C)NC(=O)[C@H](C(C)C)N(C)C(=O)C2(CCCC2)NC(=O)[C@@H]2CCCN2C(=O)[C@H](CCc2ccc(C(F)(F)F)c(Cl)c2)NC(=O)[C@@H](C)N(C)C(=O)[C@H](Cc2ccc(F)cc2)N(C)C(=O)CN(C)C(=O)CN(C)C1=O [Compound 1655] (cyclo([Ac5c][NMeV][d(β3hA)][NMeA]I[Sar][Sar][NMePhe(4-F)][dNMeA][hPhe(3-Cl-4-CF3)]P))	7.07
CCCC[C@@H]1NC(=O)[C@H](Cc2cccc(Br)c2)NC(=O)CN(C)C(=O)[C@H](Cc2ccc(Cl)cc2)N(C)C(=O)CN(C)C(=O)CN(C)C(=O)[C@H]([C@@H](C)CC)NC(=O)[C@H](CC(C)C)N(C)C(=O)C[C@@H](C(=O)N2CCCCC2)N(C)C(=O)[C@H](CC(C)C)NC(=O)C(C)(C)N(C)C1=O [Compound 1404] ([NMeL]I[Sar][Sar][NMePhe(4-Cl)][Sar][Phe(3-Br)][Nle][NMeAib]L[NMeD]-Piperidide; lactam N-11)	7.77
CC[C@H](C)[C@@H]1NC(=O)[C@H](C)N(C)C(=O)C[C@@H](C)NC(=O)[C@H](C(C)C)N(C)C(=O)[C@H](Cc2ccccc2)N(C)C(=O)[C@H](CC(C)C)N(C)C(=O)[C@H](CCc2ccc(C(F)(F)F)c(Cl)c2)NC(=O)CN(C)C(=O)[C@H](Cc2ccc(Cl)cc2)N(C)C(=O)CN(C)C(=O)CN(C)C1=O [Compound 1079] (cyclo(I[Sar][Sar][NMePhe(4-Cl)][Sar][hPhe(3-Cl-4-CF3)][NMeL][NMeF][NMeV][d(β3hA)][NMeA]))	7.82
CC[C@H](C)[C@@H]1NC(=O)[C@H](C)N(C)C(=O)C[C@@H](C)NC(=O)[C@H](CC(C)C)N(C)C(=O)[C@H](Cc2ccccc2)N(C)C(=O)[C@@H]2CCCN2C(=O)[C@H](CCc2ccc(C(F)(F)F)cc2)NC(=O)CN(C)C(=O)[C@H](CC2CCCCC2)N(C)C(=O)CN(C)C(=O)CN(C)C1=O [Compound 1031] (cyclo(I[Sar][Sar][NMeCha][Sar][hPhe(4-CF3)]P[NMeF][NMeL][d(β3hA)][NMeA]))	6.49
CCC[C@H]1C(=O)NC2(CCCC2)C(=O)N(C)[C@@H](C2CCCCC2)C(=O)N(C)[C@H](C(=O)N2CCCCC2)CC(=O)N(C)[C@@H](CC(C)C)C(=O)N[C@@H]([C@@H](C)CC)C(=O)N(C)CC(=O)N2CCC[C@H]2C(=O)N(C)[C@@H](CC2CCCCC2)C(=O)N(C)CC(=O)N[C@@H](CCc2ccc(C(F)(F)F)c(Cl)c2)C(=O)N1C [Compound 392] ([NMeL]I[Sar]P[NMeCha][Sar][hPhe(3-Cl-4-CF3)][NMeNva][Ac5c][NMeChg][NMeD]-Piperidide; lactam N-11)	7.92
CC[C@H](C)[C@@H]1NC(=O)[C@H](C)N(C)C(=O)C[C@@H](C)NC(=O)[C@H](C(C)C)N(C)C(=O)[C@H](Cc2ccccc2)N(C)C(=O)[C@@H]2CCCN2C(=O)[C@H](CCc2ccc(C(F)(F)F)cc2)NC(=O)CN(C)C(=O)[C@H](Cc2ccc(Cl)cc2)N(C)C(=O)CN(C)C(=O)CN(C)C1=O [Compound 865] (cyclo(I[Sar][Sar][NMePhe(4-Cl)][Sar][hPhe(4-CF3)]P[NMeF][NMeV][d(β3hA)][NMeA]))	7.26
CC[C@H](C)[C@@H]1NC(=O)[C@H](CC(C)C)N(C)C(=O)C[C@@H](C)NC(=O)[C@H](C(C)C)N(C)C(=O)C2(CCCC2)NC(=O)[C@@H]2CCCN2C(=O)[C@H](CCc2ccc(C(F)(F)F)c(Cl)c2)NC(=O)CN(C)C(=O)[C@H](Cc2cccc(OC(F)(F)F)c2)N(C)C(=O)CN(C)C(=O)CN(C)C1=O [Compound 1573] (cyclo([Ac5c][NMeV][d(β3hA)][NMeL]I[Sar][Sar][X38][Sar][hPhe(3-Cl-4-CF3)]P))	7.24
CC[C@H](C)[C@@H]1NC(=O)[C@H](CC(C)C)N(C)C(=O)C[C@@H](C(=O)N(C)C)N(C)C(=O)[C@H]([C@@H](C)CC)N(C)C(=O)[C@H](C(C)C)NC(=O)[C@@H](C)NC(=O)[C@H](CCc2ccc(C(F)(F)F)c(Cl)c2)NC(=O)CN(C)C(=O)[C@H](Cc2ccc(C)cc2)N(C)C(=O)[C@@H]2CCN2C(=O)[C@H](C)N(C)C1=O [Compound 915] ([NMeL]I[NMeA][Aze][NMePhe(4-Me)][Sar][hPhe(3-Cl-4-CF3)][dA]V[NMeI][NMeD]-NMe2; lactam N-11)	7.40
CC[C@H](C)[C@@H]1NC(=O)[C@H](CC(C)C)N(C)C(=O)C[C@@H](C(=O)N2C3CCC2COC3)N(C)C(=O)[C@H](C2CCCC2)N(C)C(=O)C2(CCCC2)NC(=O)[C@@H]2CCCN2C(=O)[C@H](CCc2cc(F)c(C(F)(F)F)c(F)c2)NC(=O)CN(C)C(=O)[C@H](Cc2ccc(C)cc2)N(CC)C(=O)[C@@H]2CCN2C(=O)[C@H](C)N(C)C1=O [Compound 1215] ([NMeL]I[NMeA][Aze][NEtPhe(4-Me)][Sar][hPhe(3,5-F2-4-CF3)]P[Ac5c][NMeGly(cPent)][NMeD]-{3Oxa8azabicyclo(3.2.1)octane}; lactam N-11)	8.74
CC[C@H](C)[C@@H]1NC(=O)[C@H](C)N(C)C(=O)C[C@@H](C)NC(=O)[C@H](CC(C)C)N(C)C(=O)[C@H](Cc2ccccc2)N(C)C(=O)[C@@H]2CCN2C(=O)[C@H](CCc2ccc(C(F)(F)F)cc2)NC(=O)CN(C)C(=O)[C@H](Cc2ccc(Cl)cc2)N(C)C(=O)CN(C)C(=O)CN(C)C1=O [Compound 654] (cyclo([Aze][NMeF][NMeL][d(β3hA)][NMeA]I[Sar][Sar][NMePhe(4-Cl)][Sar][hPhe(4-CF3)]))	6.96
CC[C@H](C)[C@@H]1NC(=O)[C@H](C)N(C)C(=O)C[C@@H](C(=O)N2CCCC2)NC(=O)[C@H](CC(C)C)N(C)C(=O)[C@H](COCC(C)(C)O)N(C)C(=O)[C@H](CC(C)C)NC(=O)[C@H](CCc2ccc(C(F)(F)F)cc2)NC(=O)CN(C)C(=O)[C@H](Cc2ccc(Cl)cc2)N(C)C(=O)CN(C)C(=O)CN(C)C1=O [Compound 582] ([NMeA]I[Sar][Sar][NMePhe(4-Cl)][Sar][hPhe(4-CF3)]L[NMeS](CH2CMe2OH)[NMeL]D-Pyrrolidide; lactam N-11)	7.62
